We go through 2 compounds from patent US7985538B2, “Drug resistance and methods of reversing” (Yale University, priority 2006, dated 2011).

Molecules are shown by their SMILES.

For one assay, the system named is A2780 EOC cells. As to the kind of experiment: Caspase-3/7 activity in A2780 cells, wt or MyD88 transfected, carboplatin versus paclitaxel. The settings on record: 100 μg/ml carboplatin or 2 μM paclitaxel, 48 hours; for caspase-3/7 activity: wildtype A2780. It is filed as cell-based, human. On the procedure: (§1) Ten μg of protein in a 50 μl total volume was mixed with 50 μl of equilibrated reagents of a caspase assay kit, i.e., the CASPASE GLO™ 3/7 Assay (Promega). After incubating at room temperature for 1 h, luminescence was measured using TD 20/20 Luminometer (Turner Designs, Sunnyvale, Calif.). Blank values were subtracted and fold-increase in activity was calculated based on activity measured from untreated cells. Each sample was measured in triplicate.
Transfection was performed using a plasmid containing the full-length cDNA (SEQ ID NO:3) of human MyD88 (pUNO-hMyD88, Invivogen), which encodes the amino acid sequence of SEQ ID NO:4. CP70 and A2780 cells were grown in […] surface tissue culture flasks until they reached 50% confluence. 12 μl of the Fugene 6 Transfection reagent was added into 4 ml of serum-free media for each transfection. After 5 minutes of incubation at room temperature, 1 μg of the plasmid pUNO-hMyD88 was added to the serum-free media containing Fugene 6 Transfection Reagent, and the mixtures were incubated at room temperature for another 15 minutes. The growth media in each flask was discarded, and the corresponding Fugene 6-plasmid-serum-free-media mixture was added and the flasks were incubated overnight at 37° C. 5% CO2. The transfection media was replaced with fresh growth media the second day and the cells were allowed to recover for 24 hours post transfection before treatments.
Applicants also determined whether the expression of MyD88 confers resistance that is specific to paclitaxel. Wildtype (wt) A2780 EOC cells (carboplatin sensitive) and A2780 EOC cells transfected with MyD88 were treated with 100 μg/ml carboplatin or 2 μM paclitaxel for 48 hours. Apoptosis was determined by measuring caspase-3/7 activity.

The test system of assay [1] is MyD88+ EOC cells. The assay can be described thus: Cytokine microarray (Fast Quant), MyD88+ EOC cells. Format: cell-based, human. The settings on record: 48 h; LPS 10 μg/ml or paclitaxel 20 μM. Here is the method: (§2) A panel of 10 cytokines, pro and anti-inflammatory, was simultaneously evaluated using the Fast Quant Human II kit (Whatman/Schleicher & Schuell) according to the manufacturer instructions. The signal was detected using the Genepix 4000 microarray reader and the results were analyzed using the Genepix 3.0 software (Whatman/Schleicher & Schuell).
(§3) To further characterize the effect of paclitaxel and LPS on the secretion of several cytokines and chemokines in MyD88^+ and MyD88^− EOC cells, Applicants used a high throughput microarray system (Whatman/Schleicher & Schull) to measure the levels of IL-6, IL-4, IL-8, IL-12, RANTES, and IFN-γ. Cytokine secretion was measured in the supernatants of EOC cells following 48 h incubation with either LPS (10 μg/ml) or paclitaxel (20 μM).

For a further assay, the system named is MyD88+ cells. The assay can be described thus: Western blot of XIAP, pAkt and total Akt in MyD88+ cells. It is filed as cell-based, human. From the text: Twenty μg protein were denatured in sample buffer (2.5% SDS, 10% glycerol, 5% β-mercapto-ethanol, 0.15 M Tris (pH=6.8) and 0.01% bromophenol blue) and subjected to 12% SDS-PAGE as previously described (17). Antibodies used: rabbit anti-TLR-4 (Santa Cruz Biotechnology, Santa Cruz, Calif., 1:1,000), rabbit anti-MyD88 (eBiosciences, San Diego, Calif., 1:1,000), mouse anti-NF-κB (Santa Cruz Biotechnology, 1:1,000), mouse anti-DNA topoisomerase 1 (BD Biosciences, San Jose, Calif., 1:500) and, rabbit anti-actin (Sigma Chemical Co., 1:10,000). Proteins were visualized using enhanced chemiluminescence (Pierce Biotechnology).
TLR-4 ligation through NF-κB and inflammatory molecules promotes cell survival by the induction of the expression of anti-apoptotic proteins (24, 25). The expression of X-linked inhibitor of apoptosis (XIAP), a major inhibitor of caspase-3 and 9, and the expression of Akt has been associated with tumor growth and chemoresistance in ovarian cancer cells (26-28). Therefore, Applicants evaluated the expression of XIAP and phosphorylated Akt (pAkt) following paclitaxel treatment in MyD88^+ cells. […] Similarly, XIAP levels increased 2 h post-treatment. In contrast, no change on the levels of total Akt was observed.

Another assay deals with murine macrophages. The settings on record: cited from earlier work.
In assay [2] the test system is MyD88- EOC cells. As to the kind of experiment: Cytokine ELISA (GRO-α, MCP-1, IL-6), MyD88- EOC cells. The settings on record: increasing concentrations of paclitaxel, 24 h, 48 h, 72 h. Format: cell-based, human. Here is the method: (§4) The concentrations of the IL-6, GRO-α, MCP-1 were evaluated by ELISA, according to the manufacturer's instructions. (R&D Systems, Minneapolis, Minn.)
(§5) EOC cell lines were treated for 48 h with 10 μg/ml LPS and the levels of GRO-α, MCP-1, and IL-6 were determined. […] Unstimulated MyD88^+ EOC cells constitutively express all the cytokines tested. […] In contrast, unstimulated MyD88^− EOC cells secreted undetectable or low levels of these pro-inflammatory cytokines, which were not affected by TLR-4 ligation with LPS.
(§6) MyD88^+ and MyD88^− EOC cells were treated with increasing concentrations of paclitaxel for 24 h, 48 h, and 72 h and levels of IL-6 secretion were determined by ELISA.
In general terms: An ELISA detects its analyte on a solid surface through an enzyme-linked reagent.

The next assay has as its system A2780 and CP70 EOC cells. The assay can be described thus: Caspase-3/7 activity in A2780 and CP70 cells, wt or transfected with pUNO-hMyD88. Format: cell-based, human. The following applies: 48 h. Here is the method:
as §1
Transfection was performed using a plasmid containing the full-length cDNA (SEQ ID NO:3) of human MyD88 (pUNO-hMyD88, Invivogen), which encodes the amino acid sequence of SEQ ID NO:4. CP70 and A2780 cells were grown in […] surface tissue culture flasks until they reached 50% confluence. 12 μl of the Fugene 6 Transfection reagent was added into 4 ml of serum-free media for each transfection. […]
Because Applicants observed a positive correlation between MyD88 expression and resistance to paclitaxel-induced apoptosis, their next objective was to determine whether the induction of MyD88 expression in EOC might confer resistance to paclitaxel. […] After 24 h of transfection, the cells were either left untreated or treated with 2 μM paclitaxel for 48 h and caspase-3/7 activity was determined.

Assay [3] has as its system MyD88- EOC cells. As to the kind of experiment: Cytokine microarray (Fast Quant), MyD88- EOC cells. The settings on record: 48 h; LPS 10 μg/ml or paclitaxel 20 μM. Format: cell-based, human. Here is the method:
as §2, §3

Assay [4] has as its system MyD88+ EOC cells. The assay can be described thus: CASPASE GLO 3/7 apoptosis assay, MyD88+ EOC cells. The settings on record: 2 μM paclitaxel, 24 h. Format: cell-based, human. Here is the method:
as §1
(§7) Paclitaxel has been reported to be a potential ligand to TLR-4 (23). […] EOC cells were treated with 2 μM paclitaxel for 24 h and apoptosis was determined by measuring the activity of caspases-3 and -7 using a caspase assay kit CASPASE GLO™ 3/7 Assay.

The subject of the next assay is normal OSE cells. As to the kind of experiment: CASPASE GLO 3/7 apoptosis assay, normal OSE cells. Format: cell-based. The settings on record: 2 μM paclitaxel, 24 h.
In another assay the test system is MyD88+ R182 EOC cells. The assay can be described thus: IL-6 secretion in R182 EOC cells with and without MyD88 RNAi. It is filed as cell-based, human. Here is the method: EOC cells were transiently transfected with a GFP-expressing plasmid containing silencing RNA (siRNA) directed against MyD88 (psiRNA-hMyD88, Invivogen, San Diego, Calif.). Briefly, 1.5×10^5 cells were seeded in 60 mm dishes and cultured overnight until 40-60% confluent. Cells were then transfected for 18 h with 2 μg of DNA using Fugene 6 Transfection reagent (Roche Applied Science, Indianapolis, Ind.). Ratio of Fugene to DNA was 3:1. Following transfection, cells were allowed to recover in growth media for 24 h prior to treatment.
In order to confirm that in MyD88^+ EOC cells, the ligation of TLR-4 by either LPS or paclitaxel induces the production of cytokines, Applicants inhibited its expression in MyD88^+ R182 EOC cells using RNA interference technology. […] These findings confirmed that the cytokine response in EOC cells following LPS and paclitaxel treatment involves signaling through MyD88.

Assay [5] relates to MyD88+ EOC cells. The assay can be described thus: Cytokine ELISA (GRO-α, MCP-1, IL-6), MyD88+ EOC cells. It is filed as cell-based, human. The settings on record: increasing concentrations of paclitaxel, 24 h, 48 h, 72 h; dose- and time-dependent, p<0.01. Here is the method: as §4, §5, §6
The test system of another assay is MyD88- EOC cell lines. The assay can be described thus: CASPASE GLO 3/7 apoptosis assay, MyD88- EOC cell lines. It is filed as cell-based, human. The settings on record: 2 μM paclitaxel, 24 h. On the procedure:
as §1, §7

The test system of assay [6] is MyD88+ EOC cells. The assay can be described thus: CELLTITER96 cell viability / proliferation assay, MyD88+ EOC cells. Format: cell-based, human. The settings on record: EOC cells that express MyD88. Here is the method:
Cell viability was evaluated using a cell proliferation assay, i.e., the CELLTITER96® Aqueous One Solution Cell Proliferation Assay (Promega, Madison, Wis.) according to the manufacturer's instructions. The values from the treated cells were compared with the values generated from the untreated cells and reported as percent viability. Each experiment was performed at least three times.
Once the expression of TLR-4 in EOC samples was established, Applicants evaluated the biological function of this receptor and also evaluated the significance of MyD88 status. EOC cell lines expressing MyD88 (MyD88^+) and those shown to lack MyD88 (MyD88^−) were treated with increasing concentrations of LPS (one of the main ligands for TLR-4) for 24 h and 48 h and cell viability was determined using a cell proliferation assay, i.e., the CELLTITER96® AQueous One Solution Cell Proliferation Assay. […] Thus, LPS induced a time- and dose-dependent increase in cell proliferation in cells expressing MyD88, but not in MyD88− EOC cells. LPS had no effect on viability of OSE cell, which are also negative for MyD88 expression.

In the case of `N.N.O=C([O-])C1(C(=O)[O-])CCC1.[Pt+2]` [carboplatin], the “sensitivity (apoptosis by caspase-3/7 activity)” value with A2780 EOC cells (A2780 transfected with MyD88) is on record as “retained its sensitivity”. Besides, the caspase-3/7 activity result in the assay on A2780 EOC cells is listed as “significant increase”.

As for `CC(=O)O[C@H]1C(=O)[C@@]2(C)[C@H]([C@H](OC(=O)c3ccccc3)[C@]3(O)C[C@H](OC(=O)[C@H](O)[C@@H](NC(=O)c4ccccc4)c4ccccc4)C(C)=C1C3(C)C)[C@]1(OC(C)=O)CO[C@@H]1C[C@@H]2O` [paclitaxel], the “secretion of IL-4, IL-12 and IFN-γ” value in the assay on MyD88+ EOC cells [1] and in the assay on MyD88- EOC cells [3] was “neither MyD88^+ nor MyD88^− EOC cells secreted detectable levels” in each case. The “secretion of IL-6, IL-8 and RANTES” value in the assay with MyD88+ EOC cells [1] is “increased secretion”. Further, the XIAP levels result in the assay with MyD88+ cells (2 h post-treatment) is listed as “increased”. Besides, the “phosphorylated Akt (pAkt)” value with MyD88+ cells (4 h after treatment) is on record as “significant increase”. In addition, the “levels of total Akt” value in the assay with MyD88+ cells (after paclitaxel treatment) is reported as “no change”. The “secretion of inflammatory cytokines, including TNFα, IL-6 and IL-8” value in the assay with murine macrophages (TLR-4 and MyD88 dependent) is “induces the secretion of inflammatory cytokines”. In addition, in the assay on murine macrophages (studies by Ding et al), the macrophage activation result was “activates murine macrophages”. The IL-6 levels entry with MyD88- EOC cells [2] is listed as “did not affect”. For the same compound, the caspase-3/7 activity entry in the assay on A2780 and CP70 EOC cells (cells transfected with pUNO-hMyD88, 2 μM paclitaxel) is “no changes”; in the assay on A2780 and CP70 EOC cells (wt cells, 2 μM paclitaxel), “significant increase”; with A2780 EOC cells, “significant increase”; in the assay on MyD88+ EOC cells [4], “no significant change”; in the assay on MyD88- EOC cell lines it was “significant increase”. Also, the “secretion of IL-6, IL-8 or RANTES” value with MyD88- EOC cells [3] is “neither constitutive secretion nor LPS- or paclitaxel-induced”. The caspase activity result in the assay with normal OSE cells is given as “Significant increase”. Further, the IL-6 secretion result in the assay on MyD88+ R182 EOC cells (R182 cells after inhibition of MyD88 expression by RNAi) was “decreased IL-6 secretion”. In addition, the IL-6 production entry with MyD88+ R182 EOC cells (wild type R182 cells, LPS 10 μg/ml or paclitaxel 2 μM) is on record as “high levels of IL-6”; in the assay with MyD88+ EOC cells [5], “significant increase”. For the same compound, the “proliferation in culture upon TLR-4 ligation” value with MyD88+ EOC cells [6] was “proliferate in culture”.
